According to patent publication EP1061945B1, “USE OF VIP ANALOGUES FOR PREVENTING AND TREATING BRAIN DAMAGE IN HUMAN BABIES” (ASSISTANCE PUBLIQUE - HOPITAUX DE PARIS, priority 1998, dated 2002):
Entries after “also recorded” stand apart in the source; their conditions may differ. Bridge positions count the residues as written; N and C are the ends. Square brackets hold non-standard residues; d marks the D form. Peptide text beside a SMILES is read from it. Nle = CCCC[C@H](N)C(=O)O

Test system: lésions excitotoxiques induites par l'iboténate dans le cerveau de souris en développement
Assay: Ibotenate-induced excitotoxic brain lesions in newborn mice (intracerebral ibotenate at JN or JN+5)
Format: in vivo
Source text: Le modèle chez la souris obtenu par injection intracérébrale d'iboténate reproduit : • des lésions du cortex cérébral, semblables à celles observées chez le foetus humain entre 16 et 25 semaines de grossesse, lorsque l'iboténate est injecté le jour de la naissance (JN), • des lésions du cortex cérébral semblables aux lésions du nouveau-né humain à terme, lorsque l'injection d'iboténate est effectuée à JN + 5 et • des lésions de la substance blanche, semblables aux lésions du prématuré humain, lorsque l'iboténate est injecté à JN + 5.
Dans l'ensemble de ces figures : * = p<0,05, ** = p<0,01 (ANOVA + test de comparaison multiple de Dunnett par rapport aux contrôles (iboténate seul)).
Les souris sont préparées comme décrit dans J Clin. Investig. précité.
Le VIP est injecté par voie intracérébrale à raison de 1 µg (dose par animal) et les VIP cycliques ont été injectés par voie intrapéritonéale à raison de 10 µg (dose par animal).

[1] = ibotenate at JN+5, peptide by intracerebral route
[2] = ibotenate at JN+5, peptide by intraperitoneal route

SMILES	delay of administration after the ibotenate injection within which the effects at JN+5 are observed (JN+5, peptide given after ibotenate)	taille des lésions corticales [1]	taille des lésions de substance blanche [1]	taille des lésions corticales (ibotenate at JN+5, peptide by intraperitoneal (parenteral) route)	taille des lésions de substance blanche [2]	taille des lésions corticales (ibotenate at JN, given at the same time, cyclic VIP intraperitoneal, 10 µg per animal)
CCCC[C@H](NC(=O)[C@H](CCC(N)=O)NC(=O)[C@H](CCCCN)NC(=O)[C@H](CCCNC(=N)N)NC(=O)[C@H](CC(C)C)NC(=O)[C@H](CCCCN)NC(=O)[C@@H](NC(=O)[C@H](Cc1ccc(O)cc1)NC(=O)[C@H](CC(N)=O)NC(=O)[C@H](CCC(=O)O)NC(=O)[C@@H](NC(=O)[C@H](Cc1ccccc1)NC(=O)[C@@H](NC(=O)[C@H](C)NC(=O)[C@H](CC(=O)O)NC(=O)[C@H](CO)NC(=O)[C@H](Cc1c[nH]cn1)NC(C)=O)C(C)C)[C@@H](C)O)[C@@H](C)O)C(=O)N[C@@H](C)C(=O)N[C@@H](C)C(=O)N[C@@H](CCCCN)C(=O)N[C@H]1CCCCNC(=O)C[C@@H](C(=O)N[C@@H](CC(C)C)C(=O)N[C@@H](CCCCN)C(=O)N[C@@H](CCCCN)C(=O)NCC(=O)NCC(=O)N[C@H](C(N)=O)[C@@H](C)O)NC(=O)[C@H](CC(N)=O)NC(=O)[C@H](CC(C)C)NC(=O)[C@H](Cc2ccc(O)cc2)NC1=O [SEQ ID NO:2] (Ac-HSDAVFTENYTKLRKQ[Nle]AAKKYLNDLKKGGT-NH2; lactam 21-25)	8 à 12 heures	n'est significative que lorsque l'analogue cyclique du VIP de SEQ ID NO:2 est administré par voie parentérale; also recorded: une certaine protection du cortex cérébral	diminution de la taille des lésions de substance blanche significative; also recorded: protège significativement la substance blanche	significative; also recorded: une certaine protection du cortex cérébral, surtout en intrapéritonéale	diminution de la taille des lésions de substance blanche significative; also recorded: activité significative; also recorded: protège significativement la substance blanche	
CCCC[C@H](NC(=O)[C@H](CCCNC(=N)N)NC(=O)[C@H](CCCCN)NC(=O)[C@H](CCCNC(=N)N)NC(=O)[C@H](CC(C)C)NC(=O)[C@H](CCCCN)NC(=O)[C@@H](NC(=O)[C@H](Cc1ccc(O)cc1)NC(=O)[C@H](CC(N)=O)NC(=O)[C@H](CCC(=O)O)NC(=O)[C@@H](NC(=O)[C@H](Cc1ccccc1)NC(=O)[C@@H](NC(=O)[C@H](C)NC(=O)[C@H](CC(=O)O)NC(=O)[C@H](CO)NC(=O)[C@H](Cc1c[nH]cn1)NC(C)=O)C(C)C)[C@@H](C)O)[C@@H](C)O)C(=O)N[C@@H](C)C(=O)N[C@@H](C)C(=O)N[C@@H](CCCCN)C(=O)N[C@H]1CCCCNC(=O)C[C@@H](C(=O)N[C@@H](CC(C)C)C(=O)N[C@@H](CCCCN)C(=O)N[C@@H](CCCCN)C(=O)NCC(=O)NCC(=O)N[C@H](C(N)=O)[C@@H](C)O)NC(=O)[C@H](CC(N)=O)NC(=O)[C@H](CC(C)C)NC(=O)[C@H](Cc2ccc(O)cc2)NC1=O [SEQ ID NO:3] (Ac-HSDAVFTENYTKLRKR[Nle]AAKKYLNDLKKGGT-NH2; lactam 21-25)					reproduit les effets neuroprotecteurs de l'analogue cyclique de VIP de SEQ ID NO:2	reproduit les effets neuroprotecteurs de l'analogue cyclique de VIP de SEQ ID NO:2
